Laboratory results from US20250009753A1, “METHODS FOR TREATING IMMUNE REFRACTORY LUNG CANCER” (Revolution Medicines, Inc., priority 2022, published 2025).

System: eLL2 KRASWT/G12C NRAS−/− A2 tumors
Test: Immune cell infiltration in tumors by flow cytometry
Assay type: in vivo, mouse
Conditions: 24 hours post 4 days of treatment, Compound A 200 mg/kg po qd, RMC-4550 30 mg/kg po qd, anti-PD-1 10 mg/kg ip qw
Procedure: Methods: Effects of Compound A (Ex. A556 of Table 1). dosed at 200 mg/kg po qd, RMC-4550 dosed at 30 mg/kg po qd, anti-PD-1 dosed at 10 mg/kg ip qw and the combination therapies on the immune cell infiltration in the eLL2 KRASWT/G12C NRAS−/− A2 tumors have been evaluated 24 hours post 4 days of treatment in 3 mice/group by flow cytometry. Tumor tissue was minced, processed with the Miltenyi Biotec Mouse Tumor Dissociation Kit or the Dri Tumor & Tissue Dissociation Reagent from BD Biosciences, and homogenized with the gentleMACS™ Dissociator. The cell suspension was incubated at 4° C. for 30 minutes with Mouse BD Fc Block (Clone 2.4G2 from BD Pharmingen), 10 minutes with Blue Dead Cell Stain Kit (from Invitrogen) and 30 min in cell staining buffer. Antibodies used targeted CD45 (Clone 30-F11 from BD Biosciences), CD19 (Clone 1D3 from BD Biosciences, CD3E (Clone145-2C11 from Biolegend), CD8b (Clone H35-17.2 from BD Biosciences), CD4 (Clone GK1.5 from Biolegend), CD11b (Clone M1/70 from Biolegend), F4/80 (Clone BM8 from Biolegend), Ly-6G (Clone 1A8 from BD Biosciences) and Ly-6C (Clone HK1.4 from Biolegend).

Cc1nc(N2CCC3(CC2)CO[C@@H](C)[C@H]3N)c(CO)nc1-c1cccc(Cl)c1Cl [RMC-4550]
Ly6G+ myeloid suppressor cells: significantly decreased
